Assay results taken from patent publication US5886011A, “Piperidine derivatives as substance P antagonists” (Hisamitsu Pharmaceutical Co., Inc., priority 1995, dated 1999).

Tests used:
[1] = test system: cisplatin-induced emesis; test: Anti-emetic effect against cisplatin-induced emesis; format: in vivo, ferret (male)
Description: D. Anti-emetic Effect against Cisplatin-induced Emesis
The test was carried out using male ferret (approx. 1.5 kg.). Emesis was induced by intraperitoneal administration of cisplatin (10 mg/kg). 1 mg/kg of the subject compounds were administered orally just after the cisplatin administration. The results will be shown in Table 3 as the inhibition rates compared to the control group, using the number of vomits as indexes. Further, for comparisons, the following compounds A and C were used.

[2] = test system: Substance P; test: Antagonism test on Substance P-induced airway edema; format: in vivo, guinea pig (hartley male); settings: Cavia porcellus, po, compared to the control group, read-out: Inhibition Rate (airway edema, dye transudated into trachea and main bronchi); for inhibition in vivo at 1 mg/kg: 1 mg/kg orally, thirty minutes before induction
Description: C. Antagonism Test on Substance P-induced Airway Edema
20 mg/kg of Evans' Blue and 1 nm/kg Substance P containing 200 I.U./kg of heparin were administered intravenously to hartley male guinea pigs in order to induce airway edema. After ten minutes, the guinea pigs were exsanguinated deadly. The amounts of the dye transudated into trachea and main bronchi were determined. 1 mg/kg of the subject compounds were administered orally at thirty minutes before the induction. […] Further, for comparison, the following compounds A and B were used.

[3] = test system: Substance P (guinea pig ileum); test: Bioassay test: Substance P-induced contraction of guinea pig ileum strips; settings: 10^-7 M compound; contraction by 10^-8 M Substance P regarded as 100%
Description: B. Bioassay Test […] After exsanguinating guinea pigs (body weight: 500-600 g) deadly, ileum was removed and 2 cm of ileum strips were prepared. In a Tyrode's solution (10 ml, 37° C.) in which air is passed, containing 5.2 μM atropine and 4.1 μM indomethacin, the strips having 0.5 g resting tension was suspended, and contractions of muscle were recorded on a recording device (RTA-1200, manufactured by Nihon Kohden) via an isotonic transducer (TB-612T, manufactured by Nihon Kohden). Using three specimens per one group, effects of the subject drugs on the muscle contraction caused by 10^-8 M Substance P were determined.

[4] = biological target: T1, Substance P receptor (guinea pig ileum longitudinal muscle) (Cavia porcellus, UniProt P30547); test: Receptor-binding test ([125I]SP ligand, guinea pig ileum longitudinal muscle receptor samples); settings: 10^-8 M compound; [125I]SP 50 pM, 22° C., 20 minutes
T1 construct: ileum was removed and the longitudinal muscle was stripped off; from tissue; host or cells: guinea pig ileum longitudinal muscle, washed membrane pellets
Description: To the longitudinal muscles, 20 times of the wet weight of the buffer solution (1) (50 mM tris-HCl buffer solution containing 2 mM MgCl2 and 0.1 mM phenyl methyl sulfonyl-fluoride, pH 7.4) was added. The mixture was homogenized under ice-cooling and centrifuged at 48,000×G for 15 minutes. After removing the supernatant, the pellets were re-suspended in the buffer solution (1) and centrifuged at 48,000×G for 15 minutes. The buffer solution (2) (50 mM tris.HCl buffer solution containing 10 mM ethylenediaminetetraacetic acid and 300 mM KCl, pH 7.4) was added to the pellets and suspended to be reacted under ice-cooling for 60 minutes. The resulted reaction materials were centrifuged at 48,000×G for 15 minutes. After suspending the pellets in the buffer solution (1) and distributing, the mixture were centrifuged at 48,000×G for 15 minutes. The pellets were stored at -80° C. until used as receptor samples.
Thus obtained receptor samples were suspended in 50 mM tris-HCl buffer solution to be used. As the buffer solution, binding buffer solution (tris.HCl buffer solution containing 0.02% bovine serum albumin, 40 μg/ml bacitracin, 4 μg/ml chymostatin, 4 μg/ml leupeptin and 3 mM MnCl2, pH7.4) was used.

[5] = test system: SD rats; test: Toxicity test, seven days; format: in vivo, rat (male SD); settings: 3, 10 and 30 mg/kg, male SD rats
Description: 3, 10 and 30 mg/kg of the compound of Example 46 are administered to five male SD rats per one group for seven days. The compound had no influence on body weights gains, organ weights, numbers of erythrocytes nor numbers of leukocytes.

[6] = 1 mg/kg orally just after cisplatin (10 mg/kg i.p.), compared to the control group

T1 sequence (P30547 whole entry): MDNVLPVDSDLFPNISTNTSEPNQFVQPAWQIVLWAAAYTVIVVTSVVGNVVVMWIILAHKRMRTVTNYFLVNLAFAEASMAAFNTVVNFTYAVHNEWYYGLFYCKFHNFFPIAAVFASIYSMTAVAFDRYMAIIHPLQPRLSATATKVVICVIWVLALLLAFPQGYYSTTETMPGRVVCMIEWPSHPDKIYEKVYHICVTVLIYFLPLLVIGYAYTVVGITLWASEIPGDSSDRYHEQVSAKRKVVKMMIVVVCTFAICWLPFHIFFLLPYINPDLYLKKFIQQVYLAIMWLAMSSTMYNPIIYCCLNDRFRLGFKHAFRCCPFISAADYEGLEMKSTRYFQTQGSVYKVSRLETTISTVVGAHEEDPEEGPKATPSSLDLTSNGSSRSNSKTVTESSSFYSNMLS

SMILES: COc1ccccc1CN[C@H]1CCCN[C@H]1c1ccccc1.Cl [Compound A, (2S,3S)-3-(2-methoxybenzyl)amino-2-phenylpiperidine hydrochloride, reference compound]
- Inhibition Rate (number of vomits) ([1]; 10 mg/kg (comparison compound), orally just after cisplatin (10 mg/kg i.p.)): 19%
- inhibition in vivo at 10 mg/kg ([2]; 10 mg/kg (comparison compound), orally): 12%

SMILES: COc1ccc(C(C)C)cc1CN[C@@H]1CN2CCC1CC2.Cl [Compound C, (2S,3S)-N-(5-isopropyl-2-methoxyphenyl)methyl-1-azabicyclo[2,2,2]octane-3-amine hydrochloride, reference compound]
- Inhibition Rate (number of vomits) [1, 6]: 10%

SMILES: CC(C)c1cc2c(c(CN[C@H]3CCCN[C@H]3c3ccccc3)c1)OCC2.Cl [Example 23, (2S,3S)-3-[(5-isopropyl-2,3-dihydrobenzofuran-7-yl)methyl]amino-2-phenylpiperidine hydrochloride]
- Contriction Inhibition [3]: 80.3%
- Inhibition Rate (number of vomits) [1, 6]: 70%
- inhibition at 0.01 µM [4]: 83.2%
- inhibition in vivo at 1 mg/kg [2]: 89%

SMILES: Cl.c1ccc([C@@H]2NCCC[C@@H]2NCc2cc(C3CCCC3)cc3c2OCC3)cc1 [Example 25, (2S,3S)-3-[(5-cyclopentyl-2,3-dihydrobenzofuran-7-yl)methyl]amino-2-phenylpiperidine hydrochloride]
- Contriction Inhibition [3]: 85.1%
- Inhibition Rate (number of vomits) [1, 6]: 73%
- inhibition at 0.01 µM [4]: 89.2%
- inhibition in vivo at 1 mg/kg [2]: 90%

SMILES: CSc1cc2c(c(CN[C@H]3CCCN[C@H]3c3ccccc3)c1)OCC2.Cl [Example 46, (2S,3S)-3-[(5-methylthio-2,3-dihydrobenzofuran-7-yl)methyl]amino-2-phenylpiperidine hydrochloride]
- influence on body weights gains [5]: no influence
- influence on numbers of erythrocytes [5]: no influence
- influence on numbers of leukocytes [5]: no influence
- influence on organ weights [5]: no influence
- Contriction Inhibition [3]: 72.3%
- Inhibition Rate (number of vomits) [1, 6]: 60%
- inhibition at 0.01 µM [4]: 65.3%
- inhibition in vivo at 1 mg/kg [2]: 72%

SMILES: Cl.FC(F)(F)Oc1cc2c(c(CN[C@H]3CCCN[C@H]3c3ccccc3)c1)OCC2 [Example 53, (2S,3S)-3-[(5-trifluoromethoxy-2,3-dihydrobenzofuran-7-yl)methyl]amino-2-phenylpiperidine hydrochloride]
- Contriction Inhibition [3]: 69.3%
- Inhibition Rate (number of vomits) [1, 6]: 65%
- inhibition at 0.01 µM [4]: 53.5%
- inhibition in vivo at 1 mg/kg [2]: 69%
